Patent US20230145794A1, “SOLVENT COMPOSITIONS PROMOTING PLANT GROWTH” (WinField Solutions, LLC, priority 2021, published 2023)
Read-outs that look alike come from different tables or passages of the source. Values belong to the compound of their own block, whether it stands above or below them.

How the values were obtained:
[1] = known solvent, from Safety Data Sheet; cited from earlier work
[2] = Physical properties of solvent/PGR compositions (flash point tester, pH, density); assay type: physicochemical; settings: flashpoint tester
Description: The physical properties of the various solvents and solvent combinations in combination with the assortment of PGR compositions were determined using standard laboratory equipment. Flash point was determined using a flashpoint tester.
The solvents initially examined included 2-butoxy ethanol (“BE”), BHT, propylene glycol (“PG”), methoxy propanol, water, polyethelene glycol (“PEG”), and Tetrahydrofurfyl alcohol (“THFA”), alone and/or in various combinations, with and without PGR compositions including Kinetin, indole butyric acid (“IBA”) and gibberellin A4 (“GA4”).

Structure (SMILES): CCCCOCCO [compound 3, Ethylene glycol butyl ether, 2-butoxyl ethanol]
Flash Point [1]: 60 C. °

Structure (SMILES): CC(=O)OCC(COC(C)=O)OC(C)=O [compound 12, Glyceryl triacetate]
Flash Point [1]: 138 C. °

Flash Point [2]: 183 C°
Structure (SMILES): OCC1CCCO1 (stereo not shown) [Comp 41, THFA]

Structure (SMILES): CCCCC(CC)CO (stereo not shown) [compound 7, Ethyl hexanol]
Boiling Point [1]: 185 C. ° | Density [1]: 0.833 g/mL | Flash Point [1]: 73 C. °

Structure (SMILES): CCCCOC(=O)C(C)O (stereo not shown) [compound 8, Butyl lactate]
Flash Point [1]: 76 C. °

Structure (SMILES): OCC1CCCO1 (stereo not shown) [compound 6, Tetrahydrofurfyl Alcohol]
Flash Point [1]: 84 C. °

Structure (SMILES): CCOC(C)=O [compound 1, Ethyl acetate]
Density [1]: 1.049 g/mL

Structure (SMILES): CCCCCOC(C)=O [compound 14, Amyl Acetate]
Density [1]: 0.876 g/mL | Flash Point [1]: 32 C. °

Structure (SMILES): CCCCC(CC)COC(=O)C(C)O (stereo not shown) [compound 5, Lactic acid, 2-ethylhexyl ester]
Density [1]: 1.209 g/mL | Flash Point [1]: 110 C. °

Structure (SMILES): COCC(C)O (stereo not shown) [Comp 40, methoxy propanol]
Flash Point [2]: 89 C°

Structure (SMILES): CC(=O)OCCCCCCCC=O [compound 11, Oxo-octyl acetate]
Boiling Point [1]: 211 C. ° | Density [1]: 0.867 g/mL | Flash Point [1]: 86 C. °

Structure (SMILES): CCCCOCCOCCO [compound 4, Diethylene glycol butyl ether]
Density [1]: 0.967 g/mL | Flash Point [1]: 78 C. °

Structure (SMILES): COCC(C)O (stereo not shown) [compound 2, 1-methoxy-2-propanol]
Density [1]: 0.942 g/mL

Structure (SMILES): CC(O)CO (stereo not shown) [compound 9, Propylene Glycol]
Density [1]: 1.036 g/mL | Flash Point [1]: 101 C. °
